Drawing on patent US12110288B2, “MASP-2 inhibitors and methods of use” (Omeros Corporation, priority 2019, dated 2024), this text covers Ki for 11 compounds.

For orientation: Ki means the dissociation constant of the complex between target and ligand, obtained from inhibition or displacement. A higher Ki goes with weaker binding.

The structures appear in SMILES notation. Counter-ions that a name gives are not always drawn.

In this assay the target is T1, MASP-2 (CCP1-CCP2-SP) (Homo sapiens, UniProt O00187).
T1 construct: 15 μL of Enzyme MASP-2 (CCP1-CCP2-SP) in Assay Buffer
T1 sequence (O00187 445-686 limits assumed): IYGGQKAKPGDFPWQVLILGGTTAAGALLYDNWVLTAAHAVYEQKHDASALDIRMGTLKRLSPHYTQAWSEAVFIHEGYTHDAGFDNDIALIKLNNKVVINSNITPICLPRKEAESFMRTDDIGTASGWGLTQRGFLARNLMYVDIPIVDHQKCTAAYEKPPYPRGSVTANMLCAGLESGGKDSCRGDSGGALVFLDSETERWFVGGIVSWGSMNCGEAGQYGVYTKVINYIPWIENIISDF
T1 sequence (O00187 298-444 partner limits assumed): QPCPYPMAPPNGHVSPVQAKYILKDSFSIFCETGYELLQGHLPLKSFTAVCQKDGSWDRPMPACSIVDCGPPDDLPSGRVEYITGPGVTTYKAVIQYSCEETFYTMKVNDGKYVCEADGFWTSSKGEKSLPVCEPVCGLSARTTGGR
The assay is described as follows: Enzymatic Assay for MASP-2. Type of assay: biochemical. The settings on record: fluorogenic substrate based on C2 cleavage site, room temperature, 20 mM HEPES pH 7.4. In a few lines: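 Fluorogenic substrate modelled on the C2 cleavage site, run at room temperature in 20 mM HEPES pH 7.4, 140 mM NaCl, 0.1% Tween 20; compounds were added from DMSO serial dilutions before enzyme and substrate. Reactions ran 20 min and were stopped with 0.1 M acetic acid before fluorescence was read. % activity was normalised to DMSO-only and no-enzyme controls; IC50 was taken as Ki, with tight- or slow-binding inhibitors handled separately.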
For `Cn1cc(-c2cnc(NCC3(c4ccc(Cl)cc4)CC3)c(=O)n2CC(=O)NCc2cc3cnccc3[nH]2)cn1` [Compound 65, N-((1H-Pyrrolo[3,2-c]Pyridin-2-yl)Methyl)-2-(3-(((1-(4-Chlorophenyl)Cyclopropyl)Methyl)Amino)-6-(1-Methyl-1H-Pyrazol-4-yl)-2-Oxopyrazin-1(2H)-yl)Acetamide Trifluoroacetate], the Ki is less than 500 nM. As for `O=C(Cn1c(-c2cccc(C3(O)COC3)c2)cnc(NCCc2ccccc2)c1=O)NCc1cc2cnccc2[nH]1` [Compound 99, N-((1H-Pyrrolo[3,2-c]pyridin-2-yl)methyl)-2-(6-(3-(3-hydroxyoxetan-3-yl)phenyl)-2-oxo-3-(phenethylamino)pyrazin-1(2H)-yl)acetamide], the Ki was less than 500 nM. For `C[C@H](Nc1ncc(-c2ccccc2)n(CC(=O)NCc2cc3cnccc3[nH]2)c1=O)c1ccccc1` [Compound 156, (S)-N-((1H-Pyrrolo[3,2-c]pyridin-2-yl)methyl)-2-(2-oxo-6-phenyl-3-((1-phenylethyl)amino)pyrazin-1(2H)-yl)acetamide], the Ki was less than 500 nM. Compound `O=C(Cn1c(-c2cccc(C(O)C(F)(F)F)c2)cnc(NCCc2ccccc2)c1=O)NCc1cc2cnccc2[nH]1` (centres unmarked) [Compound 97, N-((1H-Pyrrolo[3,2-c]pyridin-2-yl)methyl)-2-(2-oxo-3-(phenethylamino)-6-(3-(2,2,2-trifluoro-1-hydroxyethyl)phenyl)pyrazin-1(2H)-yl)acetamide] yielded a Ki of less than 500 nM. Turning to `O=C(Cn1c(-c2ccccc2)cnc(NCCc2ccccc2)c1=O)NCc1cc2cnccc2[nH]1` [Compound 20, N-((1H-Pyrrolo[3,2-c]pyridin-2-yl)methyl)-2-(2-oxo-3-(phenethylamino)-6-phenylpyrazin-1(2H)-yl)acetamide trifluoroacetate], the Ki was less than 500 nM. In the case of `Cn1cc(-c2cnc(NCCc3ccccc3)c(=O)n2CC(=O)NCc2cc3cnccc3[nH]2)cn1` [Compound 101, N-((1H-Pyrrolo[3,2-c]pyridin-2-yl)methyl)-2-(6-(1-methyl-1H-pyrazol-4-yl)-2-oxo-3-(phenethylamino)pyrazin-1(2H)-yl)acetamide] it was less than 500 nM; in that of `O=C(Cn1c(-c2ccccc2)cnc(N2CC(c3ccccc3)C2)c1=O)NCc1cc2cnccc2[nH]1` [Compound 139, N-((1H-Pyrrolo[3,2-c]pyridin-2-yl)methyl)-2-(2-oxo-6-phenyl-3-(3-phenylazetidin-l-yl)pyrazin-1(2H)-yl)acetamide], less than 500 nM. For `O=C(Cn1c(-c2ccccc2)cnc(N2CCC3(CCNCC3)C2)c1=O)NCc1cc2cnccc2[nH]1` [Compound 54, N-((1H-Pyrrolo[3,2-c]Pyridin-2-yl)Methyl)-2-(2-Oxo-6-Phenyl-3-(2,8-Diazaspiro[4.5]Decan-2-yl)Pyrazin-1(2H)-yl)Acetamide Di-Trifluoroacetate], the Ki fell in the range of 500 to 2500 nM. The compound `CC(O)c1cccc(-c2cnc(NCCc3ccccc3)c(=O)n2CC(=O)NCc2cc3cnccc3[nH]2)c1` (centres unmarked) [Compound 100, N-((1H-Pyrrolo[3,2-c]Pyridin-2-yl)Methyl)-2-(6-(3-(1-Hydroxyethyl)Phenyl)-2-Oxo-3-(Phenethylamino)Pyrazin-1(2H)-yl)Acetamide] showed a Ki of less than 500 nM. Consider `Cc1nc(N)ccc1CNC(=O)Cn1c(-c2cncnc2)cnc(NCCc2ccccc2)c1=O` [Compound 23, N-((6-Amino-2-methylpyridin-3-yl)methyl)-2-(2-oxo-3-(phenethylamino)-6-(pyrimidin-5-yl)pyrazin-1(2H)-yl)acetamide], for which the inhibitory constant (Ki) was less than 500 nM. Turning to `O=C(Cn1c(-c2cnn3c2CCC3)cnc(NCCc2ccccc2)c1=O)NCc1cc2cnccc2[nH]1` [Compound 115, N-((1H-Pyrrolo[3,2-c]pyridin-2-yl)methyl)-2-(6-(5,6-dihydro-4H-pyrrolo[1,2-b]pyrazol-3-yl)-2-oxo-3-(phenethylamino)pyrazin-1(2H)-yl)acetamide], the inhibitory constant (Ki) was less than 500 nM.
